# Experimental data reported in the kinase profiling compilation of Christmann-Franck et al. (2016).
# Legend:
# Assay in all cases: KINOMEscan competition binding
# Settings in all cases: compound 10.0 µM
# RIPK4 (human) = RIPK4 (human) (UniProt P57078)
# [1] = target: TYK2 JH2 pseudokinase (human) (UniProt P29597)
# PRKG1 (human) = PRKG1 (human) (UniProt Q13976)
# DAPK2 (human) = DAPK2 (human) (UniProt Q9UIK4)
# CLK3 (human) = CLK3 (human) (UniProt P49761)
# LATS2 (human) = LATS2 (human) (UniProt Q9NRM7)
# EPHA6 (human) = EPHA6 (human) (UniProt Q9UF33)
# ANKK1 (human) = ANKK1 (human) (UniProt Q8NFD2)
# MAP2K6 (human) = MAP2K6 (human) (UniProt P52564)
# TNK2 (human) = TNK2 (human) (UniProt Q07912)
# STK35 (human) = STK35 (human) (UniProt Q8TDR2)
# TGFBR2 (human) = TGFBR2 (human) (UniProt P37173)
# RPS6KA4 KD1 (human) = RPS6KA4 KD1 (human) (UniProt O75676)
# STK17B (human) = STK17B (human) (UniProt O94768)
# CDK14 (human) = CDK14 (human) (UniProt O94921)
# TGFBR1 (human) = TGFBR1 (human) (UniProt P36897)
# PDPK1 (human) = PDPK1 (human) (UniProt O15530)
# NTRK2 (human) = NTRK2 (human) (UniProt Q16620)
# MAP3K5 (human) = MAP3K5 (human) (UniProt Q99683)
# DAPK1 (human) = DAPK1 (human) (UniProt P53355)
# PRKD2 (human) = PRKD2 (human) (UniProt Q9BZL6)
# MAPK15 (human) = MAPK15 (human) (UniProt Q8TD08)
# MAPK12 (human) = MAPK12 (human) (UniProt P53778)
# AKT3 (human) = AKT3 (human) (UniProt Q9Y243)
# RPS6KA1 KD2 (human) = RPS6KA1 KD2 (human) (UniProt Q15418)
# CAMK2A (human) = CAMK2A (human) (UniProt Q9UQM7)
# IGF1R (human) = IGF1R (human) (UniProt P08069)
# CDK2 (human) = CDK2 (human) (UniProt P24941)
# MAP4K1 (human) = MAP4K1 (human) (UniProt Q92918)
# NUAK2 (human) = NUAK2 (human) (UniProt Q9H093)
# CDK7 (human) = CDK7 (human) (UniProt P50613)
# HIPK2 (human) = HIPK2 (human) (UniProt Q9H2X6)
# ICK (human) = ICK (human) (UniProt Q9UPZ9)
# IRAK1 (human) = IRAK1 (human) (UniProt P51617)
# PIK3C2G (human) = PIK3C2G (human) (UniProt O75747)
# RPS6KA1 KD2 (human), sequence (Q15418 whole entry, looked up): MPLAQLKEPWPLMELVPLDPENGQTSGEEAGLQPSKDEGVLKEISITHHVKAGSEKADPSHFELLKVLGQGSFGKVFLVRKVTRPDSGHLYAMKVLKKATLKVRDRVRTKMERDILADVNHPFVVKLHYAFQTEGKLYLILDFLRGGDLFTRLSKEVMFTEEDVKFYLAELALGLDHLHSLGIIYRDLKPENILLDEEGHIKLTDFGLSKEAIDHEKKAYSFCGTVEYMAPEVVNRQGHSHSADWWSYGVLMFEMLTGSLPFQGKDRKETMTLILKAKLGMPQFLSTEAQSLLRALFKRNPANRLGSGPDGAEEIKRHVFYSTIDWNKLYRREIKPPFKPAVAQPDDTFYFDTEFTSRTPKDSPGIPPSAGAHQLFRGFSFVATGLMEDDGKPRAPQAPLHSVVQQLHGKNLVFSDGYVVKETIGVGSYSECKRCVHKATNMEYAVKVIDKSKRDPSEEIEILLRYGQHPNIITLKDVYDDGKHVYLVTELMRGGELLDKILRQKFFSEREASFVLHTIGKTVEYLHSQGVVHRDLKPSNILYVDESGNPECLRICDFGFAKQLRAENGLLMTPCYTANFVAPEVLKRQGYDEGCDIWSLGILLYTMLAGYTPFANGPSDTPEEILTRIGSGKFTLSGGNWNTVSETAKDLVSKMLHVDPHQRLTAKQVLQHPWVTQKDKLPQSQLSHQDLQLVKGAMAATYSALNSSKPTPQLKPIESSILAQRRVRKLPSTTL
# CDK7 (human), sequence (P50613 whole entry, looked up): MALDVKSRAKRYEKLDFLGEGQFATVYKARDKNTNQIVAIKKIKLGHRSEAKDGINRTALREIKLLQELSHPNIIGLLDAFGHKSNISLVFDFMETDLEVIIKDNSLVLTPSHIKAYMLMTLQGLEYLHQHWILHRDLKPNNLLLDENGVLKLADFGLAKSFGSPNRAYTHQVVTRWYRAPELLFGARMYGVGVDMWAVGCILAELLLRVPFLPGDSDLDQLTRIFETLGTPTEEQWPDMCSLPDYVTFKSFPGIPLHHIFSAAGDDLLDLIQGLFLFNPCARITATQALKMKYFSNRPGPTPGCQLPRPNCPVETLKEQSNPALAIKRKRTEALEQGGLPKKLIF
# CDK14 (human), sequence (O94921 whole entry, looked up): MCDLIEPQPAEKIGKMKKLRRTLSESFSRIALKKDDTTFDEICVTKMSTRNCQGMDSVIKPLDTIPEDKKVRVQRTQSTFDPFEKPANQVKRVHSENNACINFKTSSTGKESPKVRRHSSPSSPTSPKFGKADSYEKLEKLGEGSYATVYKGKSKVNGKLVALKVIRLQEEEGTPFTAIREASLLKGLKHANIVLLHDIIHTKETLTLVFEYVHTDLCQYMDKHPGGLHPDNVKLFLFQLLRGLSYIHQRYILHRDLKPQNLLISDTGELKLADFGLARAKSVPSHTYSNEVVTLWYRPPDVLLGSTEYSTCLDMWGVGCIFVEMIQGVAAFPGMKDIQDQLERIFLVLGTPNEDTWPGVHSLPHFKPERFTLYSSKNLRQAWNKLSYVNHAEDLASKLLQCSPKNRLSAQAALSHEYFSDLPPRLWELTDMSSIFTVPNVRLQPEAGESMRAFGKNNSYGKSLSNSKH
# MAP3K5 (human), sequence (Q99683 whole entry, looked up): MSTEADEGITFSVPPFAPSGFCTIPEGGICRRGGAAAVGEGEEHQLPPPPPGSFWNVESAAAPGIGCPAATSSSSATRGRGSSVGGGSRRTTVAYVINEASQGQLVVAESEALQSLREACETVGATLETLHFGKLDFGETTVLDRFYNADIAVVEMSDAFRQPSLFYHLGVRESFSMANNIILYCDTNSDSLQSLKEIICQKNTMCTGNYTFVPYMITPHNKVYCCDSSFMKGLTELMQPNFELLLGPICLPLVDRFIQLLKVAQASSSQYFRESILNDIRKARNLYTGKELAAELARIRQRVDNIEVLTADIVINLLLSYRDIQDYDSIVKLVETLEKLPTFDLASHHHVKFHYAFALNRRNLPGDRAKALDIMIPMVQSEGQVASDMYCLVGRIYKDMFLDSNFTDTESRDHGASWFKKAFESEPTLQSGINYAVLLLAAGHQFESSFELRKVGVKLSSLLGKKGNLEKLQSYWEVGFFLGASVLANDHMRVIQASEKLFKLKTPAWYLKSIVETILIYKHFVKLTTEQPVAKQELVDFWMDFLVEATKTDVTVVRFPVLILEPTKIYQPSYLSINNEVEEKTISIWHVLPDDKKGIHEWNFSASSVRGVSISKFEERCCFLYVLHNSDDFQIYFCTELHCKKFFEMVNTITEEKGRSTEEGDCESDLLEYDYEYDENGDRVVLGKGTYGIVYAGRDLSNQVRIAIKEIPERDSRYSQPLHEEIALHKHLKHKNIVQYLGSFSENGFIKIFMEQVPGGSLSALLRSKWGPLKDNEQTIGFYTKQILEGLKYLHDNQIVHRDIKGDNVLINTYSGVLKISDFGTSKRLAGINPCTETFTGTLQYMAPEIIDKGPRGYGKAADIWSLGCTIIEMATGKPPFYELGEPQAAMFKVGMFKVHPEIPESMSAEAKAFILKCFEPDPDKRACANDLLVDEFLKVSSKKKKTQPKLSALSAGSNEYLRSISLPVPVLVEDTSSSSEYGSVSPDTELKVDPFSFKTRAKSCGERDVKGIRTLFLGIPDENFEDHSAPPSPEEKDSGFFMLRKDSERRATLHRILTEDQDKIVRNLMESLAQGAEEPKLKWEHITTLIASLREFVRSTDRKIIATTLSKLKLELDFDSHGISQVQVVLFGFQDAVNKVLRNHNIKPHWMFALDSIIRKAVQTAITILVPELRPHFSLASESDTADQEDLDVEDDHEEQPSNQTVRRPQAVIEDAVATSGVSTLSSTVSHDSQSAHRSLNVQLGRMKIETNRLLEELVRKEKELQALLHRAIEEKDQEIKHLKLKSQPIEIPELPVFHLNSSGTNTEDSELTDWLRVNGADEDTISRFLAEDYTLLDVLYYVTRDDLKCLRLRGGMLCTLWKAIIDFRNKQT
# MAP2K6 (human), sequence (P52564 whole entry, looked up): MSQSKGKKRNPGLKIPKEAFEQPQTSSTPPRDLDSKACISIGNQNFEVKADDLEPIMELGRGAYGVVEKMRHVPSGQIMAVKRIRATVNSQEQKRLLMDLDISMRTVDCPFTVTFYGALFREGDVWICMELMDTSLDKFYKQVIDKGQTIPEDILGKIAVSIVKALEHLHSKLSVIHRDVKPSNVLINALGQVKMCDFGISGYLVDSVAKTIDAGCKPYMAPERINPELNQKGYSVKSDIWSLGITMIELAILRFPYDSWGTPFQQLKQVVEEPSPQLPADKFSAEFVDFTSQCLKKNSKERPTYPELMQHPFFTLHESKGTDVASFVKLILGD
# PDPK1 (human), sequence (O15530 whole entry, looked up): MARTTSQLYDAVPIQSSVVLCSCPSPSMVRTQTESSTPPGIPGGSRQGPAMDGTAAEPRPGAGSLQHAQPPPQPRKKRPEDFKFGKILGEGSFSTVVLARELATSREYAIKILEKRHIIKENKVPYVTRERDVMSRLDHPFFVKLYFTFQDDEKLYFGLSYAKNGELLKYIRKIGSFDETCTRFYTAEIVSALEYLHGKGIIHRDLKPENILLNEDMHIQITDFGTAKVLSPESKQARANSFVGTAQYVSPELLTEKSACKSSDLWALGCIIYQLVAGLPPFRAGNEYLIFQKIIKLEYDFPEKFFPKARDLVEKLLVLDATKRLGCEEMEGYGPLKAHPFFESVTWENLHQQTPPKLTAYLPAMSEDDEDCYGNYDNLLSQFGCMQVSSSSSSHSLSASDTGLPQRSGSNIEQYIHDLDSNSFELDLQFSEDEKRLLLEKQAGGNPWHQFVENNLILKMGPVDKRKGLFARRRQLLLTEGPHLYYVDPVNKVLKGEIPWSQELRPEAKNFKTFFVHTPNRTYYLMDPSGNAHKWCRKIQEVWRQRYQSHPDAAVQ
# PRKD2 (human), sequence (Q9BZL6 whole entry, looked up): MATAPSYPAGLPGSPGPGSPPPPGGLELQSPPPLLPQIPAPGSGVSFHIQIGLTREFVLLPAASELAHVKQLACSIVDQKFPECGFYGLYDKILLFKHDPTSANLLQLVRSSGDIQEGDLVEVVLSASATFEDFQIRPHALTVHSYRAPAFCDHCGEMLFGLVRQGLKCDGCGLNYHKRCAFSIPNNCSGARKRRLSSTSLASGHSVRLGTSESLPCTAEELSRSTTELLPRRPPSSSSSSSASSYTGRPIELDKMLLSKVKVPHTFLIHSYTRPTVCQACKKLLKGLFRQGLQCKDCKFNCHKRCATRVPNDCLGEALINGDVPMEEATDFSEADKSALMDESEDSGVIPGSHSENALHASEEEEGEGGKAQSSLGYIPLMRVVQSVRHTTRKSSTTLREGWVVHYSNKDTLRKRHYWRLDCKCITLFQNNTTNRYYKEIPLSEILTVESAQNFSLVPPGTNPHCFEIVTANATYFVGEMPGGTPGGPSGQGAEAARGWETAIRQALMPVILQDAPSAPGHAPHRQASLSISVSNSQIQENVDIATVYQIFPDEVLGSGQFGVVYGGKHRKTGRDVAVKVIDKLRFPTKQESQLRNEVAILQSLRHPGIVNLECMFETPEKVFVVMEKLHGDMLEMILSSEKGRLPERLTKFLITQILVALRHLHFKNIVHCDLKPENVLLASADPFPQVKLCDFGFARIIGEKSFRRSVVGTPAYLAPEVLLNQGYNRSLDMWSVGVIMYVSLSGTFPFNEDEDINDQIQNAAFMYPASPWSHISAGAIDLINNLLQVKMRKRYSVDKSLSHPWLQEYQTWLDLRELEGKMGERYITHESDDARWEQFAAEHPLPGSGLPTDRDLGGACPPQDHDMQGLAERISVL
SMILES,"kinase still bound, per cent of control (RIPK4 (human))","kinase still bound, per cent of control [1]","kinase still bound, per cent of control (PRKG1 (human))","kinase still bound, per cent of control (DAPK2 (human))","kinase still bound, per cent of control (CLK3 (human))","kinase still bound, per cent of control (LATS2 (human))","kinase still bound, per cent of control (EPHA6 (human))","kinase still bound, per cent of control (ANKK1 (human))","kinase still bound, per cent of control (MAP2K6 (human))","kinase still bound, per cent of control (TNK2 (human))","kinase still bound, per cent of control (STK35 (human))","kinase still bound, per cent of control (TGFBR2 (human))","kinase still bound, per cent of control (RPS6KA4 KD1 (human))","kinase still bound, per cent of control (STK17B (human))","kinase still bound, per cent of control (CDK14 (human))","kinase still bound, per cent of control (TGFBR1 (human))","kinase still bound, per cent of control (PDPK1 (human))","kinase still bound, per cent of control (NTRK2 (human))","kinase still bound, per cent of control (MAP3K5 (human))","kinase still bound, per cent of control (DAPK1 (human))",further results
C=CC(=O)Nc1cccc(Oc2nc(Nc3ccc(N4CCN(C)CC4)cc3OC)ncc2Cl)c1,100%,100%,100%,28%,100%,100%,100%,100%,100%,18%,100%,100%,100%,100%,100%,100%,100%,100%,100%,22%,"kinase still bound, per cent of control (PRKD2 (human)): 15%; kinase still bound, per cent of control (MAPK15 (human)): 100%; kinase still bound, per cent of control (MAPK12 (human)): 100%; kinase still bound, per cent of control (AKT3 (human)): 100%; kinase still bound, per cent of control (RPS6KA1 KD2 (human)): 100%; kinase still bound, per cent of control (CAMK2A (human)): 100%; kinase still bound, per cent of control (IGF1R (human)): 7.4%; kinase still bound, per cent of control (CDK2 (human)): 100%; kinase still bound, per cent of control (MAP4K1 (human)): 34%; kinase still bound, per cent of control (NUAK2 (human)): 0.3%; kinase still bound, per cent of control (CDK7 (human)): 35%"
Cc1ccc(C(=O)Nc2cccc(C(F)(F)F)c2)cc1Nc1cncc(C(N)=O)c1,100%,100%,100%,100%,100%,100%,100%,100%,100%,100%,100%,100%,100%,100%,100%,100%,100%,32%,100%,100%,"kinase still bound, per cent of control (PRKD2 (human)): 100%; kinase still bound, per cent of control (MAPK15 (human)): 100%; kinase still bound, per cent of control (MAPK12 (human)): 100%; kinase still bound, per cent of control (AKT3 (human)): 100%; kinase still bound, per cent of control (RPS6KA1 KD2 (human)): 100%; kinase still bound, per cent of control (CAMK2A (human)): 100%; kinase still bound, per cent of control (IGF1R (human)): 100%; kinase still bound, per cent of control (CDK2 (human)): 100%; kinase still bound, per cent of control (MAP4K1 (human)): 100%; kinase still bound, per cent of control (NUAK2 (human)): 100%; kinase still bound, per cent of control (CDK7 (human)): 100%"
Cn1c(=O)n(-c2ccc(C(C)(C)C#N)cc2)c2c3cc(-c4cnc5ccccc5c4)ccc3ncc21,100%,100%,100%,100%,100%,100%,100%,100%,100%,100%,100%,100%,100%,100%,100%,100%,100%,100%,100%,100%,"kinase still bound, per cent of control (HIPK2 (human)): 100%; kinase still bound, per cent of control (ICK (human)): 100%; kinase still bound, per cent of control (IRAK1 (human)): 100%; kinase still bound, per cent of control (PRKD2 (human)): 100%; kinase still bound, per cent of control (MAPK15 (human)): 100%; kinase still bound, per cent of control (MAPK12 (human)): 100%; kinase still bound, per cent of control (AKT3 (human)): 100%; kinase still bound, per cent of control (RPS6KA1 KD2 (human)): 100%; kinase still bound, per cent of control (CAMK2A (human)): 100%; kinase still bound, per cent of control (IGF1R (human)): 100%; kinase still bound, per cent of control (CDK2 (human)): 100%; kinase still bound, per cent of control (MAP4K1 (human)): 100%; kinase still bound, per cent of control (NUAK2 (human)): 100%; kinase still bound, per cent of control (PIK3C2G (human)): 4.4%; kinase still bound, per cent of control (CDK7 (human)): 100%"
CC[C@@H]1C(=O)N(C)c2cnc(Nc3ccc(C(=O)NC4CCN(C)CC4)cc3OC)nc2N1C1CCCC1,100%,100%,100%,16%,29%,100%,100%,100%,100%,100%,100%,100%,100%,100%,100%,100%,100%,100%,100%,5.4%,"kinase still bound, per cent of control (PRKD2 (human)): 16%; kinase still bound, per cent of control (MAPK15 (human)): 100%; kinase still bound, per cent of control (MAPK12 (human)): 100%; kinase still bound, per cent of control (AKT3 (human)): 100%; kinase still bound, per cent of control (RPS6KA1 KD2 (human)): 21%; kinase still bound, per cent of control (CAMK2A (human)): 26%; kinase still bound, per cent of control (IGF1R (human)): 100%; kinase still bound, per cent of control (CDK2 (human)): 100%; kinase still bound, per cent of control (MAP4K1 (human)): 100%; kinase still bound, per cent of control (NUAK2 (human)): 100%; kinase still bound, per cent of control (CDK7 (human)): 100%"
COc1cc(C(=O)NC2CCN(C)CC2)ccc1Nc1ncc2c(n1)N(C1CCCC1)C(C)CC(=O)N2C (centres undefined),100%,100%,100%,100%,100%,100%,100%,100%,100%,100%,100%,100%,100%,100%,100%,100%,100%,100%,100%,26%,"kinase still bound, per cent of control (PRKD2 (human)): 100%; kinase still bound, per cent of control (MAPK15 (human)): 100%; kinase still bound, per cent of control (MAPK12 (human)): 100%; kinase still bound, per cent of control (AKT3 (human)): 100%; kinase still bound, per cent of control (RPS6KA1 KD2 (human)): 22%; kinase still bound, per cent of control (CAMK2A (human)): 21%; kinase still bound, per cent of control (IGF1R (human)): 32%; kinase still bound, per cent of control (CDK2 (human)): 100%; kinase still bound, per cent of control (MAP4K1 (human)): 100%; kinase still bound, per cent of control (NUAK2 (human)): 100%; kinase still bound, per cent of control (CDK7 (human)): 100%"
